The subject of one data set is blood platelets (PRP). In words: Platelet aggregation-inhibiting activity in vitro (collagen, rat platelet-rich plasma). The note with it: final concentration 100 μg/ml, 37° C. It counts as cell-based, male SD rats. As for the experimental part: (Platelet aggregation-inhibiting activity)
Blood was collected from the abdominal aorta of male SD rats (body weight: 250-300 g) which were anesthetized with ether. Nine volumes of said blood were mixed with one volume of an aqueous 3.8% (w/v) trisodium citrate solution, and the mixture was centrifuged at 500×g for 5 minutes to give platelet-rich plasma (hereinafter referred to as "PRP") as the supernatant solution. The bottom layer was further centrifuged at 1000×g for 10 minutes to give platelet-poor plasma (hereinafter referred to as "PPP") as the supernatant solution. PRP was diluted with PPP so that the blood platelet count was 8-10×10^5 /mm^3. Then, a mixture of 200 μl of said diluted PRP and 25 μl of a test compound solution (final concentration: 100 μg/ml) was introduced into a glass cell of SIENCO aggregometer (Sienco Inc., Morrison, Colo. Model DP-247-D). After the mixture was stirred at 1100 rpm at 37° C. for 2 minutes, 25 μl of a collagen solution (prepared by Holmsen's method described in Biochim. Biophys. Acta, Vol. 186, page 254(1969)) was added thereto, and the percentage inhibition of platelet aggregation was calculated in accordance with the following formula from the degree of the platelet aggregation which was estimated by Born's method (Nature, 194, page 927([…])). [formula]

Data set [1] relates to serum cholesterol and serum triglyceride. In words: Hypolipidemic activity in rats (serum cholesterol and triglyceride, one-week diet). Type of data set: in vivo. The settings on record: male SD rats, 50 mg % in diet. As for the experimental part:
(§1) A test compound (50 mg %) was added to a commercial diet, and male SD rats (body weight: 120-140 g, a group of 5 rats) were fed with the diet ad libitum for one week. After the experimental period, blood was collected from the tail vein of the rats under ether anesthesia. Serum cholesterol and serum triglyceride were measured according to the methods of Zak (Amer. J. Clin. Pathol., Vol. 24, page 1307(1954)) and Van Handel-Zilversmit (J. Lab. & Clin. Med., Vol. 55, page 152(1957)), respectively. Then, the increase (%) in liver weight and the decrease (%) in serum cholesterol or triglyceride were calculated according to the following formulae: [formula]

Another data set has as its system platelet aggregation. Nature of the data set: Platelet aggregation-inhibiting activity after oral administration (ex vivo). Type of data set: in vivo. The note with it: 100 mg/kg, one hour after administration, male SD rats, collagen.
A short description of data set [2]: Increase in liver weight in rats (one-week diet). Type of data set: in vivo. The note with it: male SD rats, 50 mg % in diet. As for the experimental part:
as §1

Molecules are shown by their SMILES.

These results are taken from patent publication US4460596A, “Thienyloxazolylacetic acid derivatives and process for preparing” (Tanabe Seiyaku Co., Ltd., priority 1981, dated 1984).

As for `O=C(O)Cc1nc(-c2ccc(F)cc2)oc1-c1ccsc1` [2-[2-(4-fluorophenyl)-5-(3-thienyl)-4-oxazolyl]acetic acid], in the data set with blood platelets (PRP), the inhibition – broadly, how much of the control response was suppressed – at 100 µg/mL is not below 10%. In addition, in data set [1], the “Decrease (%) in serum cholesterol” value is 23% and the “Decrease (%) in serum triglyceride” value was found to be 39%. In addition, in the data set with platelet aggregation, the “Percentage inhibition of platelet aggregation” value came out at 93 ± 6%.
Consider `CCOC(=O)Cc1nc(-c2ccc(F)cc2)oc1-c1cccs1` [ethyl 2-[2-(4-fluorophenyl)-5-(2-thienyl)-4-oxazolyl]acetate], for which, in the data set on blood platelets (PRP), the inhibition at 100 µg/mL was not below 10%. Also, in data set [1], the “Decrease (%) in serum cholesterol” value was found to be 17% and the “Decrease (%) in serum triglyceride” value amounted to 43%.
In the case of `CCCCCOC(=O)Cc1nc(-c2ccc(Cl)cc2)oc1-c1ccsc1` [n-pentyl 2-[2-(4-chlorophenyl)-5-(3-thienyl)-4-oxazolyl]acetate], in data set [1], the “Decrease (%) in serum cholesterol” value worked out at 19% and the “Decrease (%) in serum triglyceride” value turned out to be 45%.
For `CCOC(=O)C(C)(C)Oc1ccc(Cl)cc1` [Clofibrate, 2-(4-chlorophenoxy)-2-methylpropanoic acid ethyl ester, reference compound], the “increase (%) in liver weight” value in data set [2] stood at 12%. The molecule also showed an inhibition at 100 µg/mL with blood platelets (PRP) of less than 10%. Further, in data set [1], the “Decrease (%) in serum cholesterol” value was 15% and the “Decrease (%) in serum triglyceride” value turned out to be 16%.
The molecule `O=C(O)Cc1nc(-c2ccc(Cl)cc2)oc1-c1ccsc1` [2-[2-(4-chlorophenyl)-5-(3-thienyl)-4-oxazolyl]acetic acid] had an inhibition at 100 µg/mL with blood platelets (PRP) not below 10%. For the same molecule, in data set [1], the “Decrease (%) in serum cholesterol” value was 18% and the “Decrease (%) in serum triglyceride” value turned out to be 49%.
Turning to `CCOC(=O)Cc1nc(-c2ccc(F)cc2)oc1-c1ccsc1` [ethyl 2-[2-(4-fluorophenyl)-5-(3-thienyl)-4-oxazolyl]acetate], in the data set on blood platelets (PRP), the inhibition at 100 µg/mL was not below 10%. In data set [1], the “Decrease (%) in serum cholesterol” value was 19% and the “Decrease (%) in serum triglyceride” value is given as 31%.
In the data set on blood platelets (PRP), `CCCCCOC(=O)Cc1nc(-c2ccccc2)oc1-c1ccsc1` [n-pentyl 2-[2-phenyl-5-(3-thienyl)-4-oxazolyl]acetate] returned an inhibition at 100 µg/mL not below 10%. Moreover, in data set [1], the “Decrease (%) in serum cholesterol” value worked out at 20% and the “Decrease (%) in serum triglyceride” value is 30%.
Take `O=C(O)Cc1nc(-c2ccc(F)cc2)oc1-c1cccs1` [2-[2-(4-fluorophenyl)-5-(2-thienyl)-4-oxazolyl]acetic acid]: the inhibition at 100 µg/mL in the data set on blood platelets (PRP) was not below 10%. Further, in data set [1], the “Decrease (%) in serum cholesterol” value came out at 17% and the “Decrease (%) in serum triglyceride” value is on record as 27%.
